Measured values: US20200055839A1 (priority 2017, published 2020)
pEC50: −log10 of the molar value.

What follows are compounds tested on NL-RLuc virus (assay: Inhibition of HIV replication (NL-RLuc virus, luciferase readout in MT-2 cells)). Details: Human immunodeficiency virus 1, MT2, 120 h, MT-2 cells infected with NL-RLuc virus, 5 days of incubation, 10% FBS, at least 2 experiments.
Format: cell-based
Procedure, shortened: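 MT-2 cells infected with NL4-3-derived virus carrying Renilla luciferase in place of part of nef, grown 5 days with serial compound dilutions in RPMI 1640/10% FBS. Virus growth read as luciferase expression. EC50 from median effect equation, at least 2 experiments.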

Structure (SMILES) | pEC50
Cc1ccc(-c2cnc(C)c([C@H](OC(C)(C)C)C(=O)O)c2N2CCC(C)(C)CC2)c(F)c1F [Example 159, (2S)-2-(tert-Butoxy)-2-[5-(2,3-difluoro-4-methylphenyl)-4-(4,4-dimethylpiperidin-1-yl)-2-methylpyridin-3-yl]acetic acid] | 8.70
Cc1ncc(-c2cccc(F)c2C)c(N2CCC(C)(C)CC2)c1[C@H](OC(C)(C)C)C(=O)O [Example 160, (2S)-2-(tert-Butoxy)-2-[4-(4,4-dimethylpiperidin-1-yl)-5-(3-fluoro-2-methylphenyl)-2-methylpyridin-3-yl]acetic acid] | 7.89
COc1cccc(-c2cnc(C)c([C@H](OC(C)(C)C)C(=O)O)c2N2CCC(C)(C)CC2)c1Cl [Example 161, (2S)-2-(tert-Butoxy)-2-[5-(2-chloro-3-methoxyphenyl)-4-(4,4-dimethylpiperidin-1-yl)-2-methylpyridin-3-yl]acetic acid] | 8.05
Cc1ncc(-c2ccc(F)c(F)c2F)c(N2CCC(C)(C)CC2)c1[C@H](OC(C)(C)C)C(=O)O [Example 162, (2S)-2-(tert-Butoxy)-2-[4-(4,4-dimethylpiperidin-1-yl)-2-methyl-5-(2,3,4-trifluorophenyl)pyridin-3-yl]acetic acid] | 8.15
Cc1cccc(-c2cnc(C)c([C@H](OC(C)(C)C)C(=O)O)c2N2CCC(C)(C)CC2)c1F [Example 163, (2S)-2-(tert-Butoxy)-2-[4-(4,4-dimethylpiperidin-1-yl)-5-(2-fluoro-3-methylphenyl)-2-methylpyridin-3-yl]acetic acid] | 8.22
COc1cc(-c2cnc(C)c([C@H](OC(C)(C)C)C(=O)O)c2N2CCC(C)(C)CC2)ccn1 [Example 164, (2S)-2-(tert-Butoxy)-2-[4-(4,4-dimethylpiperidin-1-yl)-2′-methoxy-6-methyl-[3, 4′-bipyridine]-5-yl]acetic acid] | 8.40
Cc1ncc(-c2cccc(F)c2Cl)c(N2CCC(C)(C)CC2)c1[C@H](OC(C)(C)C)C(=O)O [Example 165, (2S)-2-(tert-Butoxy)-2-[5-(2-chloro-3-fluorophenyl)-4-(4,4-dimethylpiperidin-1-yl)-2-methylpyridin-3-yl]acetic acid] | 8.10
COc1c(F)cccc1-c1cnc(C)c([C@H](OC(C)(C)C)C(=O)O)c1N1CCC(C)(C)CC1 [Example 166, (2S)-2-(tert-Butoxy)-2-[4-(4,4-dimethylpiperidin-1-yl)-5-(3-fluoro-2-methoxyphenyl)-2-methylpyridin-3-yl]acetic acid] | 7.96
COc1ccccc1-c1cnc(C)c([C@H](OC(C)(C)C)C(=O)O)c1N1CCC(C)(C)CC1 [Example 167, (2S)-2-(tert-Butoxy)-2-[4-(4,4-dimethylpiperidin-1-yl)-5-(2-methoxyphenyl)-2-methylpyridin-3-yl]acetic acid] | 8.30
COc1cccc(-c2cnc(C)c([C@H](OC(C)(C)C)C(=O)O)c2N2CCC(C)(C)CC2)c1 [Example 168, (2S)-2-(tert-Butoxy)-2-[4-(4,4-dimethylpiperidin-1-yl)-5-(3-methoxyphenyl)-2-methylpyridin-3-yl]acetic acid] | 8.40
Cc1ncc(-c2ccc(OC(C)C)c(F)c2F)c(N2CCC(C)(C)CC2)c1[C@H](OC(C)(C)C)C(=O)O [Example 169, (2S)-2-(tert-Butoxy)-2-{5-[2,3-difluoro-4-(propan-2-yloxy)phenyl]-4-(4,4-dimethylpiperidin-1-yl)-2-methylpyridin-3-yl}acetic acid] | 8.15
Cc1cc(F)c(F)c(-c2cnc(C)c([C@H](OC(C)(C)C)C(=O)O)c2N2CCC(C)(C)CC2)c1 [Example 170, (2S)-2-(tert-Butoxy)-2-[5-(2,3-difluoro-5-methylphenyl)-4-(4,4-dimethylpiperidin-1-yl)-2-methylpyridin-3-yl]acetic acid] | 7.72
COc1c(F)ccc(-c2cnc(C)c([C@H](OC(C)(C)C)C(=O)O)c2N2CCC(C)(C)CC2)c1F [Example 171, (2S)-2-(tert-Butoxy)-2-[5-(2,4-difluoro-3-methoxyphenyl)-4-(4,4-dimethylpiperidin-1-yl)-2-methylpyridin-3-yl]acetic acid] | 8.30
Cc1ncc(-c2ccc(C(F)(F)F)c(F)c2F)c(N2CCC(C)(C)CC2)c1[C@H](OC(C)(C)C)C(=O)O [Example 172, (2S)-2-(tert-Butoxy)-2-{5-[2,3-difluoro-4-(trifluoromethyl)phenyl]-4-(4,4-dimethylpiperidin-1-yl)-2-methylpyridin-3-yl}acetic acid] | 7.85
CCOc1c(C(F)(F)F)ccc(-c2cnc(C)c([C@H](OC(C)(C)C)C(=O)O)c2N2CCC(C)(C)CC2)c1F [Example 173, (2S)-2-(tert-butoxy)-2-[4-(4,4-dimethylpiperidin-1-yl)-5-[3-ethoxy-2-fluoro-4-(trifluoromethyl)phenyl]-2-methylpyridin-3-yl]acetic acid] | 7.68
Cc1ncc(-c2cc(F)cc(F)c2F)c(N2CCC(C)(C)CC2)c1[C@H](OC(C)(C)C)C(=O)O [Example 174, (2S)-2-(tert-Butoxy)-2-[4-(4,4-dimethylpiperidin-1-yl)-2-methyl-5-(2,3,5-trifluorophenyl)pyridin-3-yl]acetic acid] | 7.96
CCOc1ccc(-c2cnc(C)c([C@H](OC(C)(C)C)C(=O)O)c2N2CCC(C)(C)CC2)c(F)c1F [Example 175, (2S)-2-(tert-Butoxy)-2-[4-(4,4-dimethylpiperidin-1-yl)-5-(4-ethoxy-2,3-difluorophenyl)-2-methylpyridin-3-yl]acetic acid] | 8.22
Cc1ncc(-c2ccc3ccncc3c2)c(N2CCC(C)(C)CC2)c1[C@H](OC(C)(C)C)C(=O)O [Example 176, (2S)-2-(tert-Butoxy)-2-[4-(4,4-dimethylpiperidin-1-yl)-5-(isoquinolin-7-yl)-2-methylpyridin-3-yl]acetic acid] | 8.30
Cc1cccc(-c2cnc(C)c([C@H](OC(C)(C)C)C(=O)O)c2N2CCC(C)(C)CC2)c1 [Example 177, (2S)-2-(tert-Butoxy)-2-[4-(4,4-dimethylpiperidin-1-yl)-2-methyl-5-(3-methylphenyl)pyridin-3-yl]acetic acid] | 7.92
COc1ccc(-c2cnc(C)c([C@H](OC(C)(C)C)C(=O)O)c2N2CCC(C)(C)CC2)cc1C [Example 178, (2S)-2-(tert-Butoxy)-2-[4-(4,4-dimethylpiperidin-1-yl)-5-(4-methoxy-3-methylphenyl)-2-methylpyridin-3-yl]acetic acid] | 8.70
COc1ccc(-c2cnc(C)c([C@H](OC(C)(C)C)C(=O)O)c2N2CCC(C)(C)CC2)cc1F [Example 179, (2S)-2-(tert-Butoxy)-2-[4-(4,4-dimethylpiperidin-1-yl)-5-(3-fluoro-4-methoxyphenyl)-2-methylpyridin-3-yl]acetic acid] | 8.30
Cc1ncc(-c2ccc3c(c2)OCO3)c(N2CCC(C)(C)CC2)c1[C@H](OC(C)(C)C)C(=O)O [Example 180, (2S)-2-[5-(2H-1,3-Benzodioxol-5-yl)-4-(4,4-dimethylpiperidin-1-yl)-2-methylpyridin-3-yl]-2-(tert-butoxy)acetic acid] | 8.52
COc1ccc(-c2cnc(C)c([C@H](OC(C)(C)C)C(=O)O)c2N2CCC(C)(C)CC2)c(F)c1 [Example 181, (2S)-2-(tert-Butoxy)-2-[4-(4,4-dimethylpiperidin-1-yl)-5-(2-fluoro-4-methoxyphenyl)-2-methylpyridin-3-yl]acetic acid] | 8.22
